# Measured values as given in patent publication US9273057B2 (Bristol-Myers Squibb Company, priority 2012, dated 2016).
# Molecular target: CK2A1 (CK2α/β) (Homo sapiens, UniProt P68400)
# Assay: CK2 kinase assay, CK2A1 (CK2α/β)
# Assay type: biochemical
# Conditions: Table A; read-out: CK2A1 (CK2α/β) (IC50)
# Sequence of CK2A1 (CK2α/β) (P68400 whole entry, species assumed): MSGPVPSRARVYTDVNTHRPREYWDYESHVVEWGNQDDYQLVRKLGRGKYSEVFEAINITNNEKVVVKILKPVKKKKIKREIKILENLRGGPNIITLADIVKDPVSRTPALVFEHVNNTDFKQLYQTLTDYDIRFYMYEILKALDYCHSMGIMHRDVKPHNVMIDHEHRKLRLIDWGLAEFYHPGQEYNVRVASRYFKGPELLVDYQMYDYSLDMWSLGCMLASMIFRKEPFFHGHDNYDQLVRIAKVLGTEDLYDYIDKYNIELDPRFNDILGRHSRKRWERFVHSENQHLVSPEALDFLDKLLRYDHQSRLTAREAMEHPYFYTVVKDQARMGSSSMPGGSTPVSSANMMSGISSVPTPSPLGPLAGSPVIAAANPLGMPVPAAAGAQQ
# Sequence of CK2A1 (CK2α/β) (P67870 whole entry partner, species assumed): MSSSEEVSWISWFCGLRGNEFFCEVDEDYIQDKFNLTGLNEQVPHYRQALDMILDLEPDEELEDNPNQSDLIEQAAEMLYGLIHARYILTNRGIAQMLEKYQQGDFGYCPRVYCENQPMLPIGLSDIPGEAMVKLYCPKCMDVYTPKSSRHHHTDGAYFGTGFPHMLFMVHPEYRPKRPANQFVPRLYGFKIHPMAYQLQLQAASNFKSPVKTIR
row,IC50,SMILES
1,1 nM,"CC(=O)N1CCN(CC(O)c2cc(C#N)cc(Nc3nc(NC4CC4)c4ncc(C#N)n4n3)c2Cl)CC1 (stereo not drawn) [Example 689, 2-((3-(2-(4-acetylpiperazin-1-yl)-1-hydroxyethyl)-2-chloro-5-cyanophenyl)amino)-4-(cyclopropylamino)imidazo[2,1-f][1,2,4]triazine-7-carbonitrile]"
2,3.4 nM,"CC1(O)CCN(CC(O)c2cc(C#N)cc(Nc3nc(NC4CC4)c4ncc(C#N)n4n3)c2Cl)CC1 (stereo not drawn) [Example 690, 2-((2-chloro-5-cyano-3-(1-hydroxy-2-(4-hydroxy-4-methylpiperidin-1-yl)ethyl)phenyl)amino)-4-(cyclopropylamino)imidazo[2,1-f][1,2,4]triazine-7-carbonitrile]"
3,1.81 nM,"CC(C)(O)CNCC(O)c1cc(C#N)cc(Nc2nc(NC3CC3)c3ncc(C#N)n3n2)c1Cl (stereo not drawn) [Example 691, 2-((2-chloro-5-cyano-3-(1-hydroxy-2-((2-hydroxy-2-methylpropyl)amino)ethyl)phenyl)amino)-4-(cyclopropylamino)imidazo[2,1-f][1,2,4]triazine-7-carbonitrile]"
4,1.81 nM,"CC(C)(C)NCC(O)c1cc(C#N)cc(Nc2nc(NC3CC3)c3ncc(C#N)n3n2)c1Cl (stereo not drawn) [Example 692, 2-((3-(2-(tert-butylamino)-1-hydroxyethyl)-2-chloro-5-cyanophenyl)amino)-4-(cyclopropylamino)imidazo[2,1-f][1,2,4]triazine-7-carbonitrile]"
5,1.1 nM,"CC(C)(CO)NCC(O)c1cc(C#N)cc(Nc2nc(NC3CC3)c3ncc(C#N)n3n2)c1Cl (stereo not drawn) [Example 693, 2-((2-chloro-5-cyano-3-(1-hydroxy-2-((1-hydroxy-2-methylpropan-2-yl)amino)ethyl)phenyl)amino)-4-(cyclopropylamino)imidazo[2,1-f][1,2,4]triazine-7-carbonitrile]"
6,2.68 nM,"CN(CC1CN(c2cc(C#N)cc(Nc3nc(NC4CC4)c4ncc(C#N)n4n3)c2Cl)CCO1)CC(C)(C)O (stereo not drawn) [Example 701, 2-{[2-chloro-5-cyano-3-(2-{[(2-hydroxy-2-methylpropyl)(methyl)amino]methyl}morpholin-4-yl)phenyl]amino}-4-(cyclopropylamino)imidazo[2,1-f][1,2,4]triazine-7-carbonitrile]"
7,1.82 nM,"CCNC(=O)OCC1CN(c2cc(C#N)cc(Nc3nc(NC4CC4)c4ncc(C#N)n4n3)c2Cl)CCN1C (stereo not drawn) [Example 703, [4-(2-chloro-5-cyano-3-{[7-cyano-4-(cyclopropylamino)imidazo[2,1-f][1,2,4]triazin-2-yl]amino}phenyl)-1-methylpiperazin-2-yl]methyl N-ethylcarbamate]"
8,2.94 nM,"CC(C)(O)CNCC1CN(c2cc(C#N)cc(Nc3nc(NC4CC4)c4ncc(C#N)n4n3)c2Cl)CCO1 (stereo not drawn) [Example 709, 2-{[2-chloro-5-cyano-3-(2-{[(2-hydroxy-2-methylpropyl)amino]methyl}morpholin-4-yl)phenyl]amino}-4-(cyclopropylamino)imidazo[2,1-f][1,2,4]triazine-7-carbonitrile]"
9,0.75 nM,"COC(=O)NCC1CN(c2cc(C#N)cc(Nc3nc(NC4CC4)c4ncc(C#N)n4n3)c2Cl)CCO1 (stereo not drawn) [Example 710, methyl N-{[4-(2-chloro-5-cyano-3-{[7-cyano-4-(cyclopropylamino)imidazo[2,1-f][1,2,4]triazin-2-yl]amino}phenyl)morpholin-2-yl]methyl}carbamate]"
10,2.64 nM,"CCNC(=O)NCC1CN(c2cc(C#N)cc(Nc3nc(NC4CC4)c4ncc(C#N)n4n3)c2Cl)CCO1 (stereo not drawn) [Example 711, 1-{[4-(2-chloro-5-cyano-3-{[7-cyano-4-(cyclopropylamino)imidazo[2,1-f][1,2,4]triazin-2-yl]amino}phenyl)morpholin-2-yl]methyl}-3-ethylurea]"
11,1.18 nM,"CC(=O)NCC1CN(c2cc(C#N)cc(Nc3nc(NC4CC4)c4ncc(C#N)n4n3)c2Cl)CCO1 (stereo not drawn) [Example 712, N-{[4-(2-chloro-5-cyano-3-{[7-cyano-4-(cyclopropylamino)imidazo[2,1-f][1,2,4]triazin-2-yl]amino}phenyl)morpholin-2-yl]methyl}acetamide]"
12,5.48 nM,"COC(=O)NCC1CN(c2cc(C#N)cc(Nc3nc(NC4CC4)c4ncc(C#N)n4n3)c2Cl)CCN1C (stereo not drawn) [Example 713, methyl N-{[4-(2-chloro-5-cyano-3-{[7-cyano-4-(cyclopropylamino)imidazo[2,1-f][1,2,4]triazin-2-yl]amino}phenyl)-1-methylpiperazin-2-yl]methyl}carbamate]"
13,1.38 nM,"Cc1nn(C)c(C)c1-c1cc(C#N)cc(Nc2nc(NC3CC3)c3ncc(C#N)n3n2)c1Cl [Example 717, 2-((2-chloro-5-cyano-3-(1,3,5-trimethyl-1H-pyrazol-4-yl)phenyl)amino)-4-(cyclopropylamino)imidazo[2,1-f][1,2,4]triazine-7-carbonitrile]"
14,7.41 nM,"Cc1nn(CCN(C)C)c(C)c1-c1cc(C#N)cc(Nc2nc(NC3CC3)c3ncc(C#N)n3n2)c1Cl [Example 719, 2-[(2-chloro-5-cyano-3-{1-[2-(dimethylamino)ethyl]-3,5-dimethyl-1H-pyrazol-4-yl}phenyl)amino]-4-(cyclopropylamino)imidazo [2,1-f][1,2,4]triazine-7-carbonitrile]"
15,0.16 nM,"CC(O)CCc1cc(Cl)c(Nc2nc(NC3CC3)c3ncc(C#N)n3n2)cc1C#N (stereo not drawn) [Example 722, 2-{[2-chloro-5-cyano-4-(3-hydroxybutyl)phenyl]amino}-4-(cyclopropylamino)imidazo [2,1-f][1,2,4]triazine-7-carbonitrile]"

# Second part, the compound before the results:
row,SMILES,IC50
1,"COCCN(C)CC1CN(c2cc(C#N)cc(Nc3nc(NC4CC4)c4ncc(C#N)n4n3)c2Cl)CCO1 (stereo not drawn) [Example 702, 2-{[2-chloro-5-cyano-3-(2-{[(2-methoxyethyl)(methyl)amino]methyl}morpholin-4-yl)phenyl]amino}-4-(cyclopropylamino)imidazo[2,1-f][1,2,4]triazine-7-carbonitrile]",2.48 nM
2,"COC[C@H](NC[C@H]1CN(c2cc(C#N)cc(Nc3nc(NC4CC4)c4ncc(C#N)n4n3)c2Cl)CCO1)C1CC1 [Example 704, 2-({2-chloro-5-cyano-3-[(2S)-2-({[(1R)-1-cyclopropyl-2-methoxyethyl]amino}methyl)morpholin-4-yl]phenyl}amino)-4-(cyclopropylamino)imidazo[2,1-f][1,2,4]triazine-7-carbonitrile]",1.4 nM
3,"N#Cc1cc(Nc2nc(NC3CC3)c3ncc(C#N)n3n2)c(Cl)c(N2CCOC(CN3CC(F)C3)C2)c1 (stereo not drawn) [Example 705, 2-[(2-chloro-5-cyano-3-{2-[(3-fluoroazetidin-1-yl)methyl]morpholin-4-yl}phenyl)amino]-4-(cyclopropylamino)imidazo[2,1-f][1,2,4]triazine-7-carbonitrile]",0.89 nM
4,"COC[C@H](NC[C@H]1CN(c2cc(C#N)cc(Nc3nc(NC4CC4)c4ncc(C#N)n4n3)c2Cl)CCN1C)C1CC1 [Example 706, 2-({2-chloro-5-cyano-3-[(3S)-3-({[(1R)-1-cyclopropyl-2-methoxyethyl]amino}methyl)-4-methylpiperazin-1-yl]phenyl}amino)-4-(cyclopropylamino)imidazo[2,1-f][1,2,4]triazine-7-carbonitrile]",1.76 nM
5,"COCCN(C)CC1CN(c2cc(C#N)cc(Nc3nc(NC4CC4)c4ncc(C#N)n4n3)c2Cl)CCN1C (stereo not drawn) [Example 707, 2-{[2-chloro-5-cyano-3-(3-{[(2-methoxyethyl)(methyl)amino]methyl}-4-methylpiperazin-1-yl)phenyl]amino}-4-(cyclopropylamino)imidazo[2,1-f][1,2,4]triazine-7-carbonitrile]",1.35 nM
6,"CN1CCN(c2cc(C#N)cc(Nc3nc(NC4CC4)c4ncc(C#N)n4n3)c2Cl)CC1CN1CC(F)C1 (stereo not drawn) [Example 708, 2-[(2-chloro-5-cyano-3-{3-[(3-fluoroazetidin-1-yl)methyl]-4-methylpiperazin-1-yl}phenyl)amino]-4-(cyclopropylamino)imidazo[2,1-f][1,2,4]triazine-7-carbonitrile]",0.52 nM
7,"CN1CC(N(C)C2CCN(c3cc(C#N)cc(Nc4nc(NC5CC5)c5ncc(C#N)n5n4)c3Cl)CC2)CC1=O (stereo not drawn) [Example 714, 2-((2-Chloro-5-cyano-3-(4-(methyl(1-methyl-5-oxopyrrolidin-3-yl)amino)piperidin-1-yl)phenyl)amino)-4-(cyclopropylamino)imidazo[2,1-f][1,2,4]triazine-7-carbonitrile]",44.6 nM
8,"CCN(C1CCN(c2cc(C#N)cc(Nc3nc(NC4CC4)c4ncc(C#N)n4n3)c2Cl)CC1)C1CC(=O)N(C)C1 (stereo not drawn) [Example 715, 2-[(2-chloro-5-cyano-3-{4-[ethyl(1-methyl-5-oxopyrrolidin-3-yl)amino]piperidin-1-yl}phenyl)amino]-4-(cyclopropylamino)imidazo [2,1-f][1,2,4]triazine-7-carbonitrile]",10.8 nM
9,"CC(C)N(C1CCN(c2cc(C#N)cc(Nc3nc(NC4CC4)c4ncc(C#N)n4n3)c2Cl)CC1)C1CC(=O)N(C)C1 (stereo not drawn) [Example 716, 2-[(2-chloro-5-cyano-3-{4-[(1-methyl-5-oxopyrrolidin-3-yl)(propan-2-yl)amino]piperidin-1-yl}phenyl)amino]-4-(cyclopropylamino)imidazo [2,1-f][1,2,4]triazine-7-carbonitrile]",32.6 nM
10,"N#Cc1cc(Nc2nc(NC3CC3)c3ncc(C#N)n3n2)c(Cl)c(-c2cnn(CCN3CCOCC3)c2)c1 [Example 718, 2-[(2-chloro-5-cyano-3-{1-[2-(morpholin-4-yl)ethyl]-1H-pyrazol-4-yl}phenyl)amino]-4-(cyclopropylamino)imidazo [2,1-f][1,2,4]triazine-7-carbonitrile]",0.68 nM
11,"CC(CCc1cc(Cl)c(Nc2nc(NC3CC3)c3ncc(C#N)n3n2)cc1C#N)N1CCOCC1 (stereo not drawn) [Example 720, 2-((2-chloro-5-cyano-4-(3-morpholinobutyl)phenyl)amino)-4-(cyclopropylamino)imidazo[2,1-f][1,2,4]triazine-7-carbonitrile]",2.48 nM
12,"CC(Cc1cc(Cl)c(Nc2nc(NC3CC3)c3ncc(C#N)n3n2)cc1C#N)CN1CCOCC1 (stereo not drawn) [Example 721, 2-({2-chloro-5-cyano-4-[2-(morpholin-4-ylmethyl)propyl]phenyl}amino)-4-(cyclopropylamino)imidazo [2,1-f][1,2,4]triazine-7-carbonitrile]",1.35 nM
